PubChem BioAssay (NCI)
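96-well plates; 48 h exposure; 5 concentrations. Endpoints by linear interpolation between flanking doses. Not reached: highest tested concentration assigned. At the GI50, growth is halved. The concentration for full growth arrest is given as TGI.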

Columns and labels:
Assay in all cases: DTP human tumour cell line panel, 48 h
[1] = test system: HL-60(TB) leukemia
[2] = test system: K-562 leukemia
[3] = test system: HOP-62 NSCLC
[4] = test system: MCF7 breast
[5] = test system: OVCAR-5 ovarian
[6] = test system: SW-620 colon
[7] = test system: UO-31 renal
[8] = test system: CCRF-CEM leukemia
[9] = test system: HOP-92 NSCLC
[10] = test system: NCI/ADR-RES ovarian
[11] = test system: SR leukemia
[12] = test system: KM12 colon
[13] = test system: SF-295 CNS
[14] = test system: CAKI-1 renal
[15] = test system: IGROV1 ovarian
[16] = test system: M14 melanoma
[17] = test system: MDA-MB-435
[18] = test system: MDA-MB-231 breast
[19] = test system: SK-MEL-2 melanoma
[20] = test system: RPMI-8226 leukemia
[21] = test system: OVCAR-8 ovarian
[22] = test system: MALME-3M melanoma
[23] = test system: HCT-15 colon
[24] = test system: HS 578T breast
[25] = test system: COLO 205 colon
[26] = test system: T-47D breast
[27] = test system: HCC-2998 colon
[28] = test system: LOX IMVI melanoma
[29] = test system: BT-549 breast
[30] = test system: SK-MEL-5 melanoma
[31] = test system: UACC-62 melanoma
[32] = test system: HCT-116 colon
[33] = test system: U251 CNS
[34] = test system: NCI-H226 lung
[35] = test system: TK-10 renal
[36] = test system: UACC-257 melanoma
[37] = test system: ACHN renal
[38] = test system: SNB-19 CNS
[39] = test system: SF-539 CNS
[40] = test system: MOLT-4 leukemia
[41] = test system: SN12C renal
[42] = test system: RXF 393 renal
[43] = test system: NCI-H460 lung
[44] = test system: PC-3 prostate
[45] = test system: SK-OV-3 ovarian
[46] = test system: SF-268 CNS
[47] = test system: EKVX NSCLC
[48] = test system: DU-145 prostate
[49] = test system: NCI-H23 lung
[50] = test system: 786-0 renal
[51] = test system: OVCAR-3 ovarian
[52] = test system: OVCAR-4 ovarian
[53] = test system: A549 NSCLC
[54] = test system: NCI-H522 lung
[55] = test system: SNB-75 CNS
[56] = test system: SK-MEL-28 melanoma
[57] = test system: A498 renal
[58] = test system: HT29 colon

`CN(C)c1cc[n+](/C(NS(=O)(=O)c2cc(C(=O)Nc3ccc(Cl)cc3)c(Cl)cc2[S-])=C(\C#N)C(=O)c2ccccc2)cc1` gave a GI50 [1] greater than 100 µM, a TGI [1] greater than 100 µM and a GI50 [2] of 89.4 µM. It also gave a TGI [2] greater than 100 µM, a GI50 [3] of 69.5 µM and a TGI [3] greater than 100 µM. For the same compound, the GI50 [4] was 25.1 µM, the TGI [4] was greater than 100 µM and the GI50 [5] was 22.7 µM. The TGI [5] was 53 µM, the GI50 [6] was 32 µM and the TGI [6] was greater than 100 µM. For the same compound, the GI50 [7] was 23.8 µM, the TGI [7] was 54.7 µM and the GI50 [8] was 33.1 µM. It also gave a TGI [8] greater than 100 µM, a GI50 [9] of 13.9 µM and a TGI [9] of 36.3 µM. The GI50 [10] was greater than 100 µM, the TGI [10] was greater than 100 µM and the GI50 [11] was greater than 100 µM. The TGI [11] was greater than 100 µM, the GI50 [12] was 40.6 µM and the TGI [12] was greater than 100 µM. The GI50 [13] was 27.1 µM, the TGI [13] was 68.7 µM and the GI50 [14] was 18.7 µM. For the same compound, the TGI [14] was 43 µM, the GI50 [15] was 84.7 µM and the TGI [15] was greater than 100 µM. For the same compound, the GI50 [16] was 35.6 µM, the TGI [16] was greater than 100 µM and the GI50 [17] was 36.5 µM. For the same compound, the TGI [17] was greater than 100 µM, the GI50 [18] was 16.7 µM and the TGI [18] was 48.5 µM. It also gave a GI50 [19] of 85 µM, a TGI [19] greater than 100 µM and a GI50 [20] of 40.9 µM. It also gave a TGI [20] greater than 100 µM, a GI50 [21] of 39.1 µM and a TGI [21] greater than 100 µM. It also gave a GI50 [22] of 31.7 µM, a TGI [22] greater than 100 µM and a GI50 [23] of 17.4 µM. The TGI [23] was 65.1 µM, the GI50 [24] was 26.1 µM and the TGI [24] was 67 µM. The GI50 [25] was 30 µM, the TGI [25] was greater than 100 µM and the GI50 [26] was 9.64 µM. The TGI [26] was 77.7 µM, the GI50 [27] was 20.3 µM and the TGI [27] was 57.2 µM. For the same compound, the GI50 [28] was 49.7 µM, the TGI [28] was greater than 100 µM and the GI50 [29] was 25.4 µM. The TGI [29] was 82.8 µM, the GI50 [30] was 21.3 µM and the TGI [30] was 81.8 µM. For the same compound, the GI50 [31] was 29.3 µM, the TGI [31] was 98.6 µM and the GI50 [32] was 14.9 µM. For the same compound, the TGI [32] was 34.3 µM, the GI50 [33] was 61 µM and the TGI [33] was greater than 100 µM. It also gave a GI50 [34] of 21.6 µM, a TGI [34] of 49.3 µM and a GI50 [35] of 29.1 µM. For the same compound, the TGI [35] was greater than 100 µM, the GI50 [36] was 90.2 µM and the TGI [36] was greater than 100 µM. The GI50 [37] was 50 µM, the TGI [37] was greater than 100 µM and the GI50 [38] was 37.7 µM. It also gave a TGI [38] greater than 100 µM, a GI50 [39] of 11.9 µM and a TGI [39] of 24.8 µM. The GI50 [40] was 26.8 µM, the TGI [40] was greater than 100 µM and the GI50 [41] was 79.8 µM. For the same compound, the TGI [41] was greater than 100 µM, the GI50 [42] was 55.4 µM and the TGI [42] was greater than 100 µM. The GI50 [43] was 14.4 µM, the TGI [43] was 49.4 µM and the GI50 [44] was 24.9 µM. It also gave a TGI [44] of 75.5 µM, a GI50 [45] of 36.5 µM and a TGI [45] of 99.3 µM. It also gave a GI50 [46] of 40.6 µM, a TGI [46] greater than 100 µM and a GI50 [47] of 29.3 µM. The TGI [47] was 95.9 µM, the GI50 [48] was 17.2 µM and the TGI [48] was 82.6 µM. The GI50 [49] was 41.2 µM, the TGI [49] was greater than 100 µM and the GI50 [50] was greater than 100 µM. It also gave a TGI [50] greater than 100 µM, a GI50 [51] of 26.6 µM and a TGI [51] of 98.6 µM. It also gave a GI50 [52] of 18 µM, a TGI [52] of 38.8 µM and a GI50 [53] of 41.5 µM. It also gave a TGI [53] greater than 100 µM, a GI50 [54] of 23.7 µM and a TGI [54] of 58.5 µM. The GI50 [55] was 31.1 µM, the TGI [55] was greater than 100 µM and the GI50 [56] was 30.8 µM. The TGI [56] was greater than 100 µM.

In the case of `CC(=O)OC1C2CCC1C1C2N=NN1c1ccc([N+](=O)[O-])cc1` (stereo unspecified), the TGI [1] is reported as greater than 100 µM, the TGI [3] is reported as greater than 100 µM and the TGI [4] is reported as greater than 100 µM. The TGI [5] was greater than 100 µM, the TGI [6] was greater than 100 µM and the TGI [7] was greater than 100 µM. It also gave a TGI [8] greater than 100 µM, a TGI [9] greater than 100 µM and a TGI [10] greater than 100 µM. The TGI [57] was greater than 100 µM, the TGI [11] was greater than 100 µM and the TGI [12] was greater than 100 µM. The TGI [13] was greater than 100 µM, the TGI [15] was greater than 100 µM and the TGI [16] was greater than 100 µM. The TGI [17] was greater than 100 µM, the TGI [18] was greater than 100 µM and the TGI [19] was greater than 100 µM. It also gave a TGI [20] greater than 100 µM, a TGI [21] greater than 100 µM and a TGI [22] greater than 100 µM. It also gave a TGI [23] greater than 100 µM, a TGI [24] greater than 100 µM and a TGI [25] greater than 100 µM. For the same compound, the TGI [26] was greater than 100 µM, the TGI [27] was greater than 100 µM and the TGI [28] was greater than 100 µM. It also gave a TGI [29] greater than 100 µM, a TGI [30] greater than 100 µM and a TGI [31] greater than 100 µM. It also gave a TGI [32] greater than 100 µM, a TGI [33] greater than 100 µM and a TGI [34] greater than 100 µM. For the same compound, the TGI [35] was greater than 100 µM, the TGI [36] was greater than 100 µM and the TGI [37] was greater than 100 µM. It also gave a TGI [38] greater than 100 µM, a TGI [39] greater than 100 µM and a TGI [40] greater than 100 µM. The TGI [41] was greater than 100 µM, the TGI [43] was greater than 100 µM and the TGI [44] was greater than 100 µM. It also gave a TGI [45] greater than 100 µM, a TGI [46] greater than 100 µM and a TGI [47] greater than 100 µM. For the same compound, the TGI [48] was greater than 100 µM, the TGI [49] was greater than 100 µM and the TGI [58] was greater than 100 µM. It also gave a TGI [50] greater than 100 µM, a TGI [51] greater than 100 µM and a TGI [52] greater than 100 µM. For the same compound, the TGI [53] was greater than 100 µM, the TGI [54] was greater than 100 µM and the TGI [55] was greater than 100 µM. The TGI [56] was greater than 100 µM.

For `COC(=O)CN(CC1O[C@@H]2OC(C)(C)O[C@@H]2C1N=[N+]=[N-])C(=O)OCc1ccccc1` (stereo partly specified), the TGI [1] was greater than 100 µM, the TGI [2] was greater than 100 µM and the TGI [3] was greater than 100 µM. It also gave a TGI [4] greater than 100 µM, a TGI [5] greater than 100 µM and a TGI [6] greater than 100 µM. For the same compound, the TGI [7] was greater than 100 µM, the TGI [9] was greater than 100 µM and the TGI [10] was greater than 100 µM. For the same compound, the TGI [57] was greater than 100 µM, the TGI [11] was greater than 100 µM and the TGI [12] was greater than 100 µM. It also gave a TGI [13] greater than 100 µM, a TGI [14] greater than 100 µM and a TGI [15] greater than 100 µM. The TGI [16] was greater than 100 µM, the TGI [17] was greater than 100 µM and the TGI [18] was greater than 100 µM. The TGI [19] was greater than 100 µM, the TGI [20] was greater than 100 µM and the TGI [21] was greater than 100 µM. It also gave a TGI [23] greater than 100 µM, a TGI [24] greater than 100 µM and a TGI [25] greater than 100 µM. The TGI [26] was greater than 100 µM, the TGI [27] was greater than 100 µM and the TGI [28] was greater than 100 µM. It also gave a TGI [29] greater than 100 µM, a TGI [30] greater than 100 µM and a TGI [31] greater than 100 µM. The TGI [32] was greater than 100 µM, the TGI [33] was greater than 100 µM and the TGI [34] was greater than 100 µM. The TGI [35] was greater than 100 µM, the TGI [36] was greater than 100 µM and the TGI [37] was greater than 100 µM. The TGI [38] was greater than 100 µM, the TGI [39] was greater than 100 µM and the TGI [40] was greater than 100 µM. It also gave a TGI [41] greater than 100 µM, a TGI [43] greater than 100 µM and a TGI [44] greater than 100 µM. The TGI [45] was greater than 100 µM, the TGI [46] was greater than 100 µM and the TGI [47] was greater than 100 µM. For the same compound, the TGI [48] was greater than 100 µM, the TGI [58] was greater than 100 µM and the TGI [50] was greater than 100 µM. For the same compound, the TGI [51] was greater than 100 µM, the TGI [52] was greater than 100 µM and the TGI [53] was greater than 100 µM. For the same compound, the TGI [54] was greater than 100 µM, the TGI [55] was greater than 100 µM and the TGI [56] was greater than 100 µM.
